Paper PMC8371902, “Phase 1 study of M2698, a p70S6K/AKT dual inhibitor, in patients with advanced cancer” (Journal of Hematology & Oncology, 2021)

Assay: Plasma pharmacokinetics of M2698, non-compartmental
Format: in vivo, human
Protocol: Plasma PK parameters on days 1 and 15 were calculated using non-compartmental methods.

[1] = day 1 single dose, monotherapy 15 mg, n=3
[2] = day 1 single dose, monotherapy 30 mg, n=3
[3] = day 1 single dose, monotherapy 60 mg, n=6
[4] = day 1 single dose, monotherapy 75 mg, n=4
[5] = day 1 single dose, monotherapy 110 mg, n=3
[6] = day 1 single dose, monotherapy 160 mg, n=5
[7] = day 1 single dose, monotherapy 200 mg, n=3
[8] = day 1 single dose, monotherapy 240 mg, n=9
[9] = day 1 single dose, monotherapy 320 mg, n=7
[10] = day 1 single dose, monotherapy 380 mg, n=4
[11] = day 15, combination with tamoxifen, M2698 80 mg, n=2
[12] = day 15, combination with tamoxifen, M2698 160 mg, n=5
[13] = day 15, combination with tamoxifen, M2698 200 mg, n=6
[14] = day 15, combination with tamoxifen, M2698 240 mg (intermittent regimen), n=4
[15] = day 15, combination with trastuzumab, M2698 80 mg, n=3
[16] = day 15, combination with trastuzumab, M2698 160 mg, n=7

SMILES: NC(=O)c1cccc2c(N[C@H](CN3CCC3)c3ccc(Cl)c(C(F)(F)F)c3)ncnc12 [M2698]
- AUC0–24, Geo mean (GeoCV%) [1]: 759 (67.2) ng∙h/mL
- Cmax, GeoMean (GeoCV%) [1]: 53.0 (91.1) ng/mL
- tmax, median (range) [1]: 3.08 (2.07–5.00) hours
- AUC0–24, Geo mean (GeoCV%) [2]: 1480 (52.9) ng∙h/mL
- Cmax, GeoMean (GeoCV%) [2]: 87.3 (55.9) ng/mL
- tmax, median (range) [2]: 4.00 (3.97–5.17) hours
- AUC0–24, Geo mean (GeoCV%) [3]: 2730 (36.3) ng∙h/mL
- Cmax, GeoMean (GeoCV%) [3]: 177 (38.3) ng/mL
- tmax, median (range) [3]: 4.08 (2.05–5.00) hours
- AUC0–24, Geo mean (GeoCV%) [4]: 4370 (85.2) ng∙h/mL
- Cmax, GeoMean (GeoCV%) [4]: 269 (114.4) ng/mL
- tmax, median (range) [4]: 4.83 (2.98–9.50) hours
- AUC0–24, Geo mean (GeoCV%) [5]: 4200 (21.0) ng∙h/mL
- Cmax, GeoMean (GeoCV%) [5]: 246 (21.7) ng/mL
- tmax, median (range) [5]: 6.08 (5.98–24.3) hours
- AUC0–24, Geo mean (GeoCV%) [6]: 8650 (49.8) ng∙h/mL
- Cmax, GeoMean (GeoCV%) [6]: 543 (65.3) ng/mL
- tmax, median (range) [6]: 4.05 (2.15–5.23) hours
- AUC0–24, Geo mean (GeoCV%) [7]: 8180 (102.8) ng∙h/mL
- Cmax, GeoMean (GeoCV%) [7]: 472 (110.1) ng/mL
- tmax, median (range) [7]: 4.60 (4.07–5.02) hours
- AUC0–24, Geo mean (GeoCV%) (day 1 single dose, monotherapy 240 mg, n=8 for AUC): 9200 (74.5) ng∙h/mL
- Cmax, GeoMean (GeoCV%) [8]: 590 (81.4) ng/mL
- tmax, median (range) [8]: 6.25 (4.00–24.3) hours
- AUC0–24, Geo mean (GeoCV%) (day 1 single dose, monotherapy 320 mg, n=6 for AUC): 15200 (104.0) ng∙h/mL
- Cmax, GeoMean (GeoCV%) [9]: 802 (112.0) ng/mL
- tmax, median (range) [9]: 4.73 (4.00–24.1) hours
- AUC0–24, Geo mean (GeoCV%) (day 1 single dose, monotherapy 380 mg, n=2 for AUC): 16500 (36.6) ng∙h/mL
- Cmax, GeoMean (GeoCV%) [10]: 1320 (55.0) ng/mL
- tmax, median (range) [10]: 6.28 (4.12–9.52) hours
- AUC0–τ, Geo mean (GeoCV%) [11]: 16,000 (44.7) ng∙h/mL
- Accumulation ratio (Cmax), Geo mean (GeoCV%) [11]: 2.31 (20.6)
- Cmax, GeoMean (GeoCV%) [11]: 819 (50.9) ng/mL
- tmax, median (range) [11]: 4.5 (4.00–5.00) hours
- AUC0–τ, Geo mean (GeoCV%) [12]: 22,000 (42.9) ng∙h/mL
- Accumulation ratio (Cmax), Geo mean (GeoCV%) [12]: 1.98 (26.6)
- Cmax, GeoMean (GeoCV%) [12]: 1270 (48.3) ng/mL
- tmax, median (range) [12]: 3.33 (2.95–5.58) hours
- AUC0–τ, Geo mean (GeoCV%) [13]: 27,000 (29.3) ng∙h/mL
- Accumulation ratio (Cmax), Geo mean (GeoCV%) [13]: 3.47 (65.7)
- Cmax, GeoMean (GeoCV%) [13]: 1380 (31.3) ng/mL
- tmax, median (range) [13]: 3.98 (3.07–10.0) hours
- AUC0–τ, Geo mean (GeoCV%) [14]: 20,600 (41.7) ng∙h/mL
- Accumulation ratio (Cmax), Geo mean (GeoCV%) [14]: 1.7 (40.9)
- Cmax, GeoMean (GeoCV%) [14]: 1110 (39.9) ng/mL
- tmax, median (range) [14]: 3.15 (2.13–4.00) hours
- AUC0–τ, Geo mean (GeoCV%) [15]: 7400 (34.3) ng∙h/mL
- Accumulation ratio (Cmax), Geo mean (GeoCV%) [15]: 2.00 (26.1)
- Cmax, GeoMean (GeoCV%) [15]: 405 (23.7) ng/mL
- tmax, median (range) [15]: 3.07 (2.03–5.58) hours
- AUC0–τ, Geo mean (GeoCV%) [16]: 47,200 (49.3) ng∙h/mL
- Accumulation ratio (Cmax), Geo mean (GeoCV%) [16]: 2.73 (31.5)
- Cmax, GeoMean (GeoCV%) [16]: 2560 (52.8) ng/mL
- tmax, median (range) [16]: 5.88 (3.05–8.08) hours
- AUC0–τ, Geo mean (GeoCV%) (day 15, monotherapy 15 mg, n=3): 2540 (6.0) ng∙h/mL
- Accumulation ratio (Cmax), Geo mean (GeoCV%) (day 15, monotherapy 15 mg, n=3): 2.57 (73.6)
- Cmax, GeoMean (GeoCV%) (day 15, monotherapy 15 mg, n=3): 136 (16.8) ng/mL
- tmax, median (range) (day 15, monotherapy 15 mg, n=3): 3.00 (2.97–7.50) hours
- AUC0–τ, Geo mean (GeoCV%) (day 15, monotherapy 30 mg, n=3): 5410 (17.8) ng∙h/mL
- Accumulation ratio (Cmax), Geo mean (GeoCV%) (day 15, monotherapy 30 mg, n=3): 3.19 (41.2)
- Cmax, GeoMean (GeoCV%) (day 15, monotherapy 30 mg, n=3): 279 (14.5) ng/mL
- tmax, median (range) (day 15, monotherapy 30 mg, n=3): 4.30 (1.93–6.02) hours
